This is an account of results in US6034246A, “2-arylbenzazole compounds” (Cancer Research Campaign Technology Limited, priority 1995, dated 2000).

SMILES strings stand for the structures. Values after ≈ are worked out from the molar mass of the structure shown.

A short description of one series: aqueous solubility. As to conditions: water. It is filed as physicochemical.
The subject of the next series is breast carcinoma BO. Description: in vivo antitumor test, human breast carcinoma BO xenotransplanted in nude mice. Conditions: for Relative tumor volume (T/C %) / evaluation: BO. The protocol: (§1) In one typical set of experiments, four human breast carcinomas xenotransplanted into female Ncr: nu/nu (Taconic, Germantown, U.S.A.) or male Bom: NMRI-nu/nu mice (Bomholtgaard, Ry, Denmark) were used for the evaluation of antitumor activity. Mice weighing 20-25 g at the start of experiments were held under sterile conditions at 24-26° C., 50% relative humidity and 12 hours light-dark rhythm in laminar flow shelves. The animals received autoclaved food and bedding; the drinking water was filtered and acidified (pH4.0).
The following breast carcinoma cell lines were used: BO; MCF-7 (NCI, U.S.A.); MT-1 and MT-3. The tumors BO and MCF-7 are ER^+ models: the carcinomas MT-1 and MT-3 are ER^- ones. Tumors were transplanted subcutaneously (s.c.) as pieces (2×2 mm) into the left flank of 5-8 nude mice/experimental group. Drug treatment was initiated when the tumors reached a diameter of 4-5 mm. Compounds were solubized with Tween 80 (maximum 10% of final volume) and suspended in saline. Suspensions were preparted freshly for each drug administration and injected in a volume of 0.2 mL/20 g body weight employing a once-weekly schedule (x3). Tumor size was measured twice weekly with a caliper. Median tumor volume/group was related to the first treatment day and expressed as Relative Tumor Volume (RTV). For the estimation of toxicity, body weight was determined twice weekly and the mean percentage body weight change (BCC) was calculated. In one experiment blood was obtained from the retroorbital venous plexus of mice and blood cells were determined with a Coulter counter (Model T41). […]

Series [1] is described as follows: estimation of toxicity in tumor-bearing nude mice (body weight, blood cells, survival). It is filed as in vivo, mouse. As to conditions: for BWC (body weight change): BO. The method, then: as §1
The following breast carcinoma cell lines were used: BO; MCF-7 (NCI, U.S.A.); MT-1 and MT-3. The tumors BO and MCF-7 are ER^+ models: the carcinomas MT-1 and MT-3 are ER^- ones. Tumors were transplanted subcutaneously (s.c.) as pieces (2×2 mm) into the left flank of 5-8 nude mice/experimental group. Drug treatment was initiated when the tumors reached a diameter of 4-5 mm. Compounds were solubized with Tween 80 (maximum 10% of final volume) and suspended in saline. Suspensions were preparted freshly for each drug administration and injected in a volume of 0.2 mL/20 g body weight employing a once-weekly schedule (x3). Tumor size was measured twice weekly with a caliper. Median tumor volume/group was related to the first treatment day and expressed as Relative Tumor Volume (RTV). For the estimation of toxicity, body weight was determined twice weekly and the mean percentage body weight change (BCC) was calculated. In one experiment blood was obtained from the retroorbital venous plexus of mice and blood cells were determined with a Coulter counter (Model T41).

A further series concerns L23/P. Description: in vitro inhibition of growth of human lung cancer cell line L23/P (Table 1). The series is classed as cell-based. The text has this: (§2) Tables 1 to 4 at the end of the present description show in vitro test results obtained in various sets of experiments for the cytotoxic activity of several of the benzazole compounds concerned, including also for reference results for the compound CJM 126 and comparative results for compound DF129, when tested against a range of tumor cell lines which includes ovarian, lung and certain colon and renal cancer cells from the National Cancer Institute (USA) collection. As usual the results are expressed in terms of IS50 values (concentration or dosage required to reduce cell growth or proliferation by 50%) calculated from dose-effect curves plotted for cultures of the cells in question.
(§3) In carrying out the in vitro studies, the cytotoxicity assays may be carried out by a method corresponding substantially to the following example:
(§4) Cells were maintained in a continuous logarithmic culture in Dublecco's medium supplemented with 10% fetal calf serum and penicillin (100 IU/ml) and streptomycin ([…]). The cells were mildly trypsinized for passage and for use in assays. On day zero, 100 μl of trypsinized tumor cells (1×10^4 /ml) were plated in the wells of 96-well flat-bottom microtiter plates. The plates were incubated for 2 days at 37° C. and 5% CO2 in air to allow the cells to adhere and resume exponential growth prior to the addition of drugs.
(§5) On day two 50 μl of the highest drug concentration was added to the wells of column 12 and from there serially diluted 3-fold to column 1 by serial transfer of 50 μl using an 8-channel micropipette. The final volume of column 1 was adjusted to 100 μl. No additions were made to the wells of rows A and B, which served as controls. The plates were further incubated for 5 days at 37° C. and 5% CO2 in air. Each compound was tested in duplicate.
(§6) On day 7 the test was terminated by the addition of 100 μl saline containing 0.002% w/v propidium iodide (Sigma), 0.3% drawing ink (Staedtler "Marsmatic 745"--Trade Mark) and 0.5% Triton X-100. The plates were kept at 4° C. overnight before reading on an inverted microscope equipped with an automated scanning stage. Fluorescence intensity was measured in arbitrary units by a photomultiplier. An HP-87 computer controlled the movement of the stage and also collected and processed the data from the multiplier.
(§7) For each compound tested a dose-response curve was obtained and the IC50 value (the drug concentration at 50% inhibition of cell growth) was calculated.

The next series relates to H69/P. Description: in vitro inhibition of growth of human lung cancer cell line H69/P (Table 1). The series is classed as cell-based.
From the text: as §2, §3, §4, §5, §6, §7

A further series concerns MOR/P. Description: in vitro inhibition of growth of human lung cancer cell line MOR/P (Table 1). The series is classed as cell-based. As to conditions: MOR/P (parental line).
From the text: as §2, §3, §4, §5, §6, §7

The test system of series [2] is human breast cancer cell lines. Conditions: words, prior PCT compound; cited from earlier work.
A further series has as its system MOR/R. Description: in vitro inhibition of growth of human lung cancer cell line MOR/R (Table 1). As to conditions: MOR/R (multidrug resistant line). The series is classed as cell-based.
From the text: as §2, §3, §4, §5, §6, §7

Another series concerns lung cancer cell lines. Description: in vitro inhibition of lung cancer cell lines. Conditions: words, Table 1. The series is classed as cell-based, human.
From the text: as §2
In carrying out the in vitro studies, the cytotoxicity assays may be carried out by a method corresponding substantially to the following example: […]
On day 7 the test was terminated by the addition of 100 μl saline containing 0.002% w/v propidium iodide (Sigma), 0.3% drawing ink (Staedtler "Marsmatic 745"--Trade Mark) and 0.5% Triton X-100. The plates were kept at 4° C. overnight before reading on an inverted microscope equipped with an automated scanning stage. Fluorescence intensity was measured in arbitrary units by a photomultiplier. […]

The subject of the next series is L23/R. Put plainly: in vitro inhibition of growth of human lung cancer cell line L23/R (Table 1). It is filed as cell-based.
From the text: as §2, §3, §4, §5, §6, §7

In a further series the test system is LX4. Put plainly: in vitro inhibition of growth of human lung cancer cell line LX4 (Table 1). It is filed as cell-based.
From the text: as §2, §3, §4, §5, §6, §7

The subject of the next series is A2780. Description: in vitro activity against human ovarian cell line A2780 (Table 2). The series is classed as cell-based. Conditions: A2780 (parental line).
From the text: (§8) As usual the results are expressed in terms of IS50 values (concentration or dosage required to reduce cell growth or proliferation by 50%) calculated from dose-effect curves plotted for cultures of the cells in question.
as §3, §4, §5
(§9) The plates were kept at 4° C. overnight before reading on an inverted microscope equipped with an automated scanning stage. Fluorescence intensity was measured in arbitrary units by a photomultiplier. An HP-87 computer controlled the movement of the stage and also collected and processed the data from the multiplier.

In the next series the test system is A2780-cisR. Description: in vitro activity against human ovarian cell line A2780-cisR (Table 2). Conditions: A2780-cisR (platinum-resistant). It is filed as cell-based.
From the text: as §8, §3, §4, §5, §9

A further series relates to CH1-cisR. Put plainly: in vitro activity against human ovarian cell line CH1-cisR (Table 2). The series is classed as cell-based.
From the text: as §8, §3, §4, §5, §9

Another series deals with CH1. Description: in vitro activity against human ovarian cell line CH1 (Table 2). The series is classed as cell-based.
From the text: as §8, §3, §4, §5, §9

A further series relates to ER-tumors MT-1 and MT-3. Conditions: words, background statement; cited from earlier work.
Where [3] appears, read: qd 27, 34, 41, 20 mg/Kg/inj. i.p.
[4] abbreviates: qd 27, 34, 41, 200 mg/Kg/inj. i.p. (Table 5).
Setting [5] is: qd 27, 34, 41, 1 mg/Kg/inj. i.p.
[6] abbreviates: qd 27, 34, 41, 10 mg/Kg/inj. i.p.
[7] abbreviates: qd 27, 34, 41, 100 mg/Kg/inj. i.p.

Compound `O=S(=O)([O-])Nc1ccc(-c2nc3ccccc3s2)cc1.[Na+]` displayed a solubility in “aqueous solubility” of around 10000 µg/mL.

As for `Nc1cccc(-c2nc3ccccc3s2)c1` [2-(3-Aminophenyl)-benzothiazole], the “Relative tumor volume (T/C %)” value amounted to 78% in the series on breast carcinoma BO (qd 27, 34, 41, 2 mg/Kg/inj. i.p., not marked significant); 48% with breast carcinoma BO (qd 27, 34, 41, 20 mg/Kg/inj. i.p., * significant versus controls (p < 0.05)); 32% with breast carcinoma BO (qd 27, 34, 41, 200 mg/Kg/inj. i.p. (Table 5), * significant versus controls (p < 0.05)). In addition, the evaluation entry is “+ (T/C % = 36-50%)” in the series on breast carcinoma BO (setting [3]) and “++ (T/C = 21-35%)” with breast carcinoma BO (setting [4]). Besides, the “inhibitory effects against the breast carcinoma BO” value in the series with breast carcinoma BO (words) is given as “elicited inhibitory effects”. The “BWC (body weight change)” value is given as 2% in series [1] (qd 27, 34, 41, 2 mg/Kg/inj. i.p.); -3% in [1] (setting [3]); -6% in series [1] (setting [4]).

`Nc1ccc(-c2nc3ccccc3s2)cc1` [CJM126, 2-(4'-Aminophenyl)benzothiazole]: the IC50 with L23/P, in the series with H69/P, in the series with MOR/P, in the series with MOR/R, with L23/R and in the series on LX4 was above 10 µM each time. In addition, the evaluation entry is “+ (T/C % = 36-50%)” with breast carcinoma BO (setting [5]), “(+) (T/C % ≥ 51%)” in the series on breast carcinoma BO (setting [6]) and “(+) (T/C % ≥ 51%)” with breast carcinoma BO (setting [7]). The “Relative tumor volume (T/C %)” value worked out at 41% with breast carcinoma BO (qd 27, 34, 41, 1 mg/Kg/inj. i.p., * significant versus controls (p < 0.05)); 52% in the series with breast carcinoma BO (qd 27, 34, 41, 10 mg/Kg/inj. i.p., * significant versus controls (p < 0.05)); 52% in the series with breast carcinoma BO (qd 27, 34, 41, 100 mg/Kg/inj. i.p., * significant versus controls (p < 0.05)). In addition, the “influence on tumor growth, dose dependence” value in the series with breast carcinoma BO (words) is recorded as “relatively independent of dose”. Besides, in the series on breast carcinoma BO (words), the “inhibitory effects against the breast carcinoma BO” value is “elicited inhibitory effects”. For the same compound, the “specific inhibitory activity in respect of certain human breast cancer cell lines” value in series [2] is “remarkably high specific inhibitory activity”. The concentration in solution in “aqueous solubility” (solubility) was 3.8 µg/mL (≈ 16.8 µM). Moreover, the “activity against lung cancer cell lines” value in the series on lung cancer cell lines is recorded as “not very sensitive”. Moreover, the “BWC (body weight change)” value in [1] (setting [5]) was -5%; in [1] (setting [6]), -4%; in series [1] (setting [7]), -7%. In addition, the “influence on body weight, dose dependence” value in [1] (words) is on record as “relatively independent of dose”.

For `N.N.[Cl][Pt][Cl]` [Cisplatin], the IC50 with A2780 was 330 nM; in the series with A2780-cisR it was 5.2 µM; with CH1-cisR, 700 nM; with CH1 it was 100 nM. The “responsiveness of MT-1 and MT-3 tumors to drug” value in the series on ER-tumors MT-1 and MT-3 is recorded as “only modestly sensitive”.
